Assays:
[1] = CC50 assay (CellTiter-Glo) in Huh-7 HCV replicon cells; type: cell-based, human; conditions: human, 3 days incubation, CellTiter-Glo readout
Protocol: (§1) The anti-HCV activity of the pyrido[3,2-d]pyrimidine derivatives of this invention was tested in a human hepatoma Huh-7 cell line harboring a HCV replicon. The assay comprised the following steps:
(§2) Step 1: Compound Preparation and Serial Dilution
(§3) • 1. for water soluble pyrido[3,2-d]pyrimidine derivatives, a volume of 500 μL of solution in cell media (DMEM, 10% FBS, P/S, L-Glutamine) was prepared with a concentration being twice the concentration of the starting final serial dilution concentration. A volume of 150 μL of the solution was added to the pre-specified wells in column 1 of a 96-well cell culture plate (PerkinElmer, white plate, cat. #6005181, for EC50 assay; black plate, cat. #6005182 for CC50 assay). The rest of the plate, columns 2-12, was filled with 100 μL of cell media. The plate was then placed on a Precision 2000 Workstation to start the serial dilution. Compounds were diluted three times each step from column 1 to column 10. Column 11 was used as a blank control (no compound added). • 2. for pyrido[3,2-d]pyrimidine derivatives requiring DMSO to dissolve, serial dilution is performed in 50% DMSO in a 384-well plate. A solution containing a compound at 100-fold concentration of the starting final serial dilution concentration was prepared in 50% DMSO and added to the pre-specified wells in column 1 of a polypropylene 384-well plate. The plate was then placed on a Precision 2000 Workstation to start the serial dilution. After the serial dilution, a volume of 2 μL of the solution was transferred from the 384-well plate to a 96-well cell culture plate containing 100 μL of cell media on a Biomek FX Workstation. The DMSO concentration in the final assay condition was 0.5% after cells are added to the plate and the total volume in each well is brought to 200 μL.
(§4) Step 2: to each well of the serial dilution plate prepared above, 100 μL of cell media containing 6000 suspended Huh-7 HCV replicon cells was added with a Multidrop workstation. The plates were incubated for 3 days at 37° C. with 5% CO2.
(§5) • a) for the EC50 assay, the media in a 96-well cell culture plate was aspirated with a Biotek EL405 plate-washer. A volume of 200 μL of a solution containing a 1:1 mixture of cell-lysis buffer (Promega, Luciferase Cell Culture Lysis 5× Reagent, cat. #E1531) and luciferase substrate solution (Promega, Luciferase Assay, cat.#E4550) was added to each well of the plate with Multidrop. The plate was incubated for 30 minutes at room temperature before the luminescence signal was measured with a TopCount plate-reader. • b) for the CC50 assay, a volume of 100 μL of pre-mixed CellTiter-Glo (Promega, cat.#G7572) solution is added directly to the cell culture in each well of the plate and the luminescence signal is measured with a TopCount plate-reader after 10 minutes of incubation at room temperature.

[2] = test system: HCV replicon in human hepatoma Huh-7 cell line; assay: Anti-HCV replicon assay (EC50, luciferase); type: cell-based; conditions: Hepatitis C virus, Huh-7, 72 h
Protocol: as §1, §2, §3, §4, §5

Row | Compound | CC50 at 3 days [1] | EC50 [2]
1 | Fc1ccc(-c2ccc3nc(NCC(F)(F)F)nc(O[C@H]4CCOC4)c3n2)cc1 [Example 20, [6-(4-Fluoro-phenyl)-4-(tetrahydro-furan-3-yloxy)-pyrido[3,2-d]pyrimidin-2-yl]-(2,2,2-trifluoro-ethyl)-amine] | > 25 µM | < 0.1 µM
2 | CCOc1nc(NCC(F)(F)F)nc2ccc(-c3ccc(F)cc3)nc12 [Example 21, [4-Ethoxy-6-(4-fluoro-phenyl)-pyrido[3,2-d]pyrimidin-2-yl]-(2,2,2-trifluoro-ethyl)-amine] | 5 to 25 µM | < 0.1 µM
3 | Fc1ccc(CNc2nc(O[C@H]3CCOC3)c3nc(-c4ccc(F)cc4)ccc3n2)cc1 [Example 23, (4-Fluoro-benzyl)-[6-(4-fluoro-phenyl)-4-(tetrahydro-furan-3-yloxy)-pyrido[3,2-d]pyrimidin-2-yl]amine] | 5 to 25 µM | < 0.1 µM
4 | NC(=O)CCNc1nc(NCc2ccc(F)cc2)nc2ccc(-c3ccc(F)cc3)nc12 [Example 24, 3-[2-(4-Fluoro-benzylamino)-6-(4-fluoro-phenyl)-pyrido[3,2-d]pyrimidin-4-ylamino]-propionamide] | 5 to 25 µM | < 0.1 µM
5 | CC(C)(O)CNc1nc(NCc2ccc(F)cc2)nc2ccc(-c3ccc(F)cc3)nc12 [Example 25, 1-[2-(4-Fluoro-benzylamino)-6-(4-fluoro-phenyl)-pyrido[3,2-d]pyrimidin-4-ylamino]-2-methyl-propan-2-ol] | < 5 µM | < 0.1 µM
6 | COc1nc(NCc2ccc(F)cc2)nc2ccc(-c3ccc(F)cc3)nc12 [Example 26, (4-Fluoro-benzyl)-[6-(4-fluoro-phenyl)-4-methoxy-pyrido[3,2-d]pyrimidin-2-yl]-amine] | > 25 µM | < 0.1 µM
7 | CS(=O)(=O)C1CCN(c2nc(NCc3ccc(F)cc3)nc3ccc(-c4ccc(F)cc4)nc23)C1 (centres unmarked) [Example 27, (4-Fluoro-benzyl)-[6-(4-fluoro-phenyl)-4-(3-methanesulfonyl-pyrrolidin-1-yl)-pyrido[3,2-d]pyrimidin-2-yl]-amine] | < 5 µM | < 0.1 µM
8 | CN(CCS(C)(=O)=O)c1nc(NCc2ccc(F)cc2)nc2ccc(-c3ccc(F)cc3)nc12 [Example 28, N2-(4-Fluoro-benzyl)-6-(4-fluoro-phenyl)-N4-(2-methanesulfonyl-ethyl)-N4-methyl-pyrido[3,2-d]pyrimidine-2,4-diamine] | > 25 µM | < 0.1 µM
9 | CC(C)N1CCC(Nc2nc(NCc3ccc(F)cc3)nc3ccc(-c4ccc(F)cc4)nc23)CC1 [Example 29, N2-(4-Fluoro-benzyl)-6-(4-fluoro-phenyl)-N4-(1-isopropyl-piperidin-4-yl)-pyrido[3,2-d]pyrimidine-2,4-diamine] | < 5 µM | < 0.1 µM
10 | CCNc1nc(NCc2ccc(F)cc2)nc2ccc(-c3ccc(F)cc3)nc12 [Example 30, N4-Ethyl-N2-(4-fluoro-benzyl)-6-(4-fluoro-phenyl)-pyrido[3,2-d]pyrimidine-2,4-diamine] | 5 to 25 µM | < 0.1 µM
11 | Fc1ccc(CNc2nc(NCc3cccnc3)c3nc(-c4ccc(F)cc4)ccc3n2)cc1 [Example 31, N2-(4-Fluoro-benzyl)-6-(4-fluoro-phenyl)-N4-pyridin-3-ylmethyl-pyrido[3,2-d]pyrimidine-2,4-diamine] | 5 to 25 µM | < 0.1 µM
12 | Fc1ccc(CNc2nc(NCCN3CCOCC3)c3nc(-c4ccc(F)cc4)ccc3n2)cc1 [Example 32, N2-(4-Fluoro-benzyl)-6-(4-fluoro-phenyl)-N4-(2-morpholin-4-yl-ethyl)-pyrido[3,2-d]pyrimidine-2,4-diamine] | 5 to 25 µM | < 0.1 µM
13 | Fc1ccc(CNc2nc(NCC(F)(F)F)c3nc(-c4ccc(F)cc4)ccc3n2)cc1 [Example 33, N2-(4-Fluoro-benzyl)-6-(4-fluoro-phenyl)-N4-(2,2,2-trifluoro-ethyl)-pyrido[3,2-d]pyrimidine-2,4-diamine] | 5 to 25 µM | < 0.1 µM
14 | COCCNc1nc(NCc2ccc(F)cc2)nc2ccc(-c3ccc(F)cc3)nc12 [Example 34, N2-(4-Fluoro-benzyl)-6-(4-fluoro-phenyl)-N4-(2-methoxy-ethyl)-pyrido[3,2-d]pyrimidine-2,4-diamine] | < 5 µM | < 0.1 µM
15 | CCOc1nc(NCc2ccc(F)c(F)c2)nc2ccc(-c3ccc(F)cc3)nc12 [Example 35, (3,4-Difluoro-benzyl)-[4-ethoxy-6-(4-fluoro-phenyl)-pyrido[3,2-d]pyrimidin-2-yl]-amine] | 5 to 25 µM | < 0.1 µM
16 | CCOc1nc(NCc2c(F)cc(OC)cc2F)nc2ccc(-c3ccc(F)cc3)nc12 [Example 36, (2,6-Difluoro-4-methoxy-benzyl)-[4-ethoxy-6-(4-fluoro-phenyl)-pyrido[3,2-d]pyrimidin-2-yl]-amine] | 5 to 25 µM | < 0.1 µM
17 | CCOc1nc(NCc2c(F)cc(Cl)cc2F)nc2ccc(-c3ccc(F)cc3)nc12 [Example 37, (4-Chloro-2,6-difluoro-benzyl)-[4-ethoxy-6-(4-fluoro-phenyl)-pyrido[3,2-d]pyrimidin-2-yl]-amine] | 5 to 25 µM | < 0.1 µM
18 | CCOc1nc(NCc2ccc(Cl)cc2F)nc2ccc(-c3ccc(F)cc3)nc12 [Example 38, (4-Chloro-2-fluoro-benzyl)-[4-ethoxy-6-(4-fluoro-phenyl)-pyrido[3,2-d]pyrimidin-2-yl]-amine] | 5 to 25 µM | < 0.1 µM
19 | CCOc1nc(NCc2c(F)cc(F)cc2F)nc2ccc(-c3ccc(F)cc3)nc12 [Example 39, (4-Ethoxy-6-(4-fluoro-phenyl)-pyrido[3,2-d]pyrimidin-2-yl]-(2,4,6-trifluoro-benzyl)-amine] | 5 to 25 µM | < 0.1 µM
20 | CCOc1nc(NCc2ccc(Cl)c(F)c2)nc2ccc(-c3ccc(F)cc3)nc12 [Example 40, (4-Chloro-3-fluoro-benzyl)-[4-ethoxy-6-(4-fluoro-phenyl)-pyrido[3,2-d]pyrimidin-2-yl]-amine] | 5 to 25 µM | < 0.1 µM
21 | CCOc1nc(NCc2ccc(F)c(F)c2F)nc2ccc(-c3ccc(F)cc3)nc12 [Example 41, [4-Ethoxy-6-(4-fluoro-phenyl)-pyrido[3,2-d]pyrimidin-2-yl]-(2,3,4-trifluoro-benzyl)-amine] | 5 to 25 µM | < 0.1 µM
22 | CCOc1nc(NCc2ccc(F)c(Cl)c2)nc2ccc(-c3ccc(F)cc3)nc12 [Example 42, (3-Chloro-4-fluoro-benzyl)-[4-ethoxy-6-(4-fluoro-phenyl)-pyrido[3,2-d]pyrimidin-2-yl]-amine] | 5 to 25 µM | < 0.1 µM
23 | CCOc1nc(NCc2ccc(F)cc2Cl)nc2ccc(-c3ccc(F)cc3)nc12 [Example 43, (2-Chloro-4-fluoro-benzyl)-[4-ethoxy-6-(4-fluoro-phenyl)-pyrido[3,2-d]pyrimidin-2-yl]-amine] | > 25 µM | < 0.1 µM
24 | CCOc1nc(NCc2ccc(C(F)(F)F)c(F)c2)nc2ccc(-c3ccc(F)cc3)nc12 [Example 44, [4-Ethoxy-6-(4-fluoro-phenyl)-pyrido[3,2-d]pyrimidin-2-yl]-(3-fluoro-4-trifluoromethyl-benzyl)-amine] | 5 to 25 µM | < 0.1 µM
25 | CCOc1nc(NCc2cc(F)cc(F)c2)nc2ccc(-c3ccc(F)cc3)nc12 [Example 45, (3,5-Difluoro-benzyl)-[4-ethoxy-6-(4-fluoro-phenyl)-pyrido[3,2-d]pyrimidin-2-yl]-amine] | 5 to 25 µM | < 0.1 µM
26 | CCOc1nc(NCc2cc(F)c(F)c(F)c2)nc2ccc(-c3ccc(F)cc3)nc12 [Example 46, [4-Ethoxy-6-(4-fluoro-phenyl)-pyrido[3,2-d]pyrimidin-2-yl]-(3,4,5-trifluoro-benzyl)-amine] | 5 to 25 µM | < 0.1 µM
27 | CCOc1nc(NCc2cccc(F)c2)nc2ccc(-c3ccc(F)cc3)nc12 [Example 47, [4-Ethoxy-6-(4-fluoro-phenyl)-pyrido[3,2-d]pyrimidin-2-yl]-(3-fluoro-benzyl)-amine] | 5 to 25 µM | < 0.1 µM
28 | CCOc1nc(NCc2cccc(Cl)c2F)nc2ccc(-c3ccc(F)cc3)nc12 [Example 48, (3-Chloro-2-fluoro-benzyl)-[4-ethoxy-6-(4-fluoro-phenyl)-pyrido[3,2-d]pyrimidin-2-yl]-amine] | > 25 µM | < 0.1 µM

Source: US8729089B2 (Gilead Sciences, Inc., priority 2006, dated 2014)
